Counter-ions that a name gives are not always drawn.
Experiments:
[1] = target: T1, human recombinant PTP1B (hPTP1B) (Homo sapiens, UniProt P18031); assay: Inhibition of tri-phosphorylated insulin receptor dodecaphosphopeptide dephosphorylation by hPTP1B (malachite green phosphate detection); type: biochemical; conditions: for IC50: recombinant PTP1B, insulin receptor 1142-1153 triphosphopeptide substrate, 37° C., 30 min, pH 7.4; for inhibition at 1 µM: compound at 1.0 μM, percent of phosphatase control
T1 construct: made in house
T1 sequence (P18031 1-435): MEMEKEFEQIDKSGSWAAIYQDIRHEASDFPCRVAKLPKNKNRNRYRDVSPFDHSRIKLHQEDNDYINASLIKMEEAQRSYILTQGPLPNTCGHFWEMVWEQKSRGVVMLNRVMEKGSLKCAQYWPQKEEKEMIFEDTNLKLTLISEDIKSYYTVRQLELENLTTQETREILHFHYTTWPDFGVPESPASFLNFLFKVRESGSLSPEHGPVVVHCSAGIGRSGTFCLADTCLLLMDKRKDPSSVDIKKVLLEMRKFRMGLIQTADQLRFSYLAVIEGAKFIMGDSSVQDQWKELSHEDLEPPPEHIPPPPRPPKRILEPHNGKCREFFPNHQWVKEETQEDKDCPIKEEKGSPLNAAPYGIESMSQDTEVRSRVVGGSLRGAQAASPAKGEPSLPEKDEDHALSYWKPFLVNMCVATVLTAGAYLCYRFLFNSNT

Row | Compound | % inhibition @ 0.5 μM [1] [% inhibition @ 0.5 μM] | melting point [°C] | IC50 [1] [nM] | inhibition at 1 µM [1] [%]
1 | 4-[4-(2-Butyl-benzofuran-3-carbonyl)-phenylsulfonyl]-2-hydroxy-benzoic acid [Example 16] | 22.81 | – | – | –
2 | CCc1oc2ccccc2c1C(=O)c1cc(-c2ccccc2)c(OS(=O)(=O)c2ccc(C(=O)O)c(O)c2)c(-c2ccccc2)c1 (as salt: sodium) [Example 6, 4-[5′-(2-Ethyl-benzofuran-3-carbonyl)-[1,1′: 3′,1″]terphenyl-2′-yloxysulfonyl-]2-hydroxy-benzoic acid sodium salt] | – | 211 to 212 | – | –
3 | CCc1oc2ccccc2c1C(=O)c1cc(Br)c(OS(=O)(=O)c2ccc(C(=O)O)c(O)c2)c(Br)c1 [Example 1, 4-[2,6-Dibromo-4-(2-ethyl-benzofuran-3-carbonyl)-phenoxysulfonyl]-2-hydroxy-benzoic acid] | – | 173 | 251 | –
4 | CCCCc1oc2ccccc2c1C(=O)c1cc(-c2ccccc2)c(OS(=O)(=O)c2ccc(C(=O)O)c(O)c2)c(-c2ccccc2)c1 [Example 2, 4-[5′-(2-Butyl-benzofuran-3-carbonyl)-[1,1′; 3′1″]terphenyl-2′-yloxysulfonyl]-2-hydroxy-benzoic acid] | – | 190 to 197 | 130 | –
5 | CCc1oc2ccccc2c1C(=O)c1cc(C)c(OS(=O)(=O)c2ccc(C(=O)O)c(O)c2)c(C)c1 [Example 3, 4-[4-(2-Ethyl-benzofuran-3-carbonyl)-2,6-dimethyl-phenoxysulfonyl]-2-hydroxy-benzoic acid] | – | 166 to 167 | 421 | –
6 | CCc1oc2ccccc2c1C(=O)c1cc(C(C)C)c(OS(=O)(=O)c2ccc(C(=O)O)c(O)c2)c(C(C)C)c1 [Example 4, 4-[4-(2-Ethyl-benzofuran-3-carbonyl)-2,6-diisopropyl-phenoxysulfonyl]-2-hydroxy-benzoic acid] | – | 200 to 201 | 559 | –
7 | Cc1oc(Cc2ccccc2)c(C(=O)c2cc(C(C)C)c(OS(=O)(=O)c3ccc(C(=O)O)c(O)c3)c(C(C)C)c2)c1C [Example 5, 4-[4-(2-Benzyl-4,5-dimethyl-furan-3-carbonyl)-2,6-diisopropyl-phenoxysulfonyl]-2-hydroxy-benzoic acid] | – | 142 to 143 | 83 | –
8 | CCc1oc2ccccc2c1C(=O)c1cc(-c2ccccc2)c(OS(=O)(=O)c2ccc(C(=O)O)c(O)c2)c(-c2ccccc2)c1 [Example 6, 4-[5′-(2-Ethyl-benzofuran-3-carbonyl)-[1,1′: 3′,1″]terphenyl-2′-yloxysulfonyl-]2-hydroxy-benzoic acid sodium salt] | – | – | 256 | –
9 | Cc1cc(C(=O)c2c(Cc3ccccc3)oc(C)c2C)cc(-c2ccccc2)c1OS(=O)(=O)c1ccc(C(=O)[O-])c(O)c1.[Na+] [Example 7, 4-[5-(2-Benzyl4,5-dimethyl-furan-3-carbonyl)-3-methyl-biphenyl-2-yloxysulfonyl]-2-hydroxy-benzoic acid sodium salt] | – | 187 to 190 | 180 | –
10 | Cc1oc(Cc2ccc3ccccc3c2)c(C(=O)c2cc(C(C)C)c(OS(=O)(=O)c3ccc(C(=O)O)c(O)c3)c(C(C)C)c2)c1C [Example 8, 4-[4-(4,5-Dimethyl-2-naphthalen-2-ylmethyl-furan-3-carbonyl)-2,6-diisopropyl-phenoxysulfonyl]-2-hydroxy-benzoic acid] | – | 130 to 135 | 75 | –
11 | Cc1oc(Cc2ccccc2Br)c(C(=O)c2cc(C(C)C)c(OS(=O)(=O)c3ccc(C(=O)O)c(O)c3)c(C(C)C)c2)c1C [Example 9, 4-{4-[2-(2-Bromo-benzyl)-4.5-dimethyl-furan-3-carbonyl]-2.6-diisopropyl-phenoxysulfonyl}-2-hydroxy-benzoic acid] | – | 90 to 95 | 83 | –
12 | Cc1oc(Cc2cccc(Br)c2)c(C(=O)c2cc(C(C)C)c(OS(=O)(=O)c3ccc(C(=O)O)c(O)c3)c(C(C)C)c2)c1C [Example 10, 4-{4-[2-(3-Bromo-benzyl)-4.5-dimethyl-furan-3-carbonyl]-2.6-diisopropylphenoxysulfonyl}-2-hydroxy-benzoic acid] | – | 148 | 226 | –
13 | Cc1oc(Cc2ccc(Br)cc2)c(C(=O)c2cc(C(C)C)c(OS(=O)(=O)c3ccc(C(=O)O)c(O)c3)c(C(C)C)c2)c1C [Example 11, 4-{4-[2-(4-Bromo-benzyl)4,5-dimethyl-fuiran-3-carbonyl]-2,6-diisopropyl-phenoxysulfonyl}-2-hydroxy-benzoic acid] | – | 165 to 168 | 99 | –
14 | O=C(O)c1ccc(S(=O)(=O)Oc2ccc(CCc3c(Cc4ccccc4)sc4ccccc34)cc2)cc1O [Example 12, 4-{4-[2-(2-Benzyl-benzo[b]thiophen-3-yl)thyl]-phenoxysulfonyl}-2-hydroxy-benzoic acid] | – | 57 to 59 | 183 | –
15 | Cc1oc(Cc2ccc(Br)cc2)c(C(=O)c2ccc(OS(=O)(=O)c3ccc(C(=O)O)c(O)c3)c(C3CCCC3)c2)c1C [Example 13, 4-{4-[2-(4-Bromo-benzyl)4,5-dimethyl-furan-3-carbonyl]-2-cyclopentyl-phenoxysulfonyl}-2-hydroxy-benzoic acid] | – | 188 to 192 | 267 | –
16 | CCCCc1oc2ccccc2c1CCc1ccc(OS(=O)(=O)c2ccc(C(=O)O)c(O)c2)cc1 [Example 14, 4-{4-[2-(2-Butyl-benzofuran-3-yl)-ethyl]-phenoxysulfonyl}-2-hydroxy-benzoic acid] | – | 93 to 95 | 60 | –
17 | CCCCc1oc2ccccc2c1CNc1ccc(OS(=O)(=O)c2ccc(C(=O)O)c(O)c2)cc1 [Example 15, 4-{4-[(2-Butyl-benzofuran-3-ylmethyl)-amino]-phenoxysulfonyl}-2-hydroxy-benzoic acid] | – | 75 to 77 | – | 28.8
18 | Cc1oc(Cc2ccccc2)c(C(=O)c2ccc(OS(=O)(=O)c3ccc(C(=O)O)c(O)c3)c(C3CCCC3)c2)c1C [Example 17, 4-[4-(2-Benzyl-4,5-dimethyl-furan-3-carbonyl)-2-cyclopentyl-phenoxysulfonyl]-2-hydroxy-benzoic acid] | – | 80 to 85 | 643 | –
19 | Cc1sc(Cc2ccccc2)c(C(=O)c2ccc(OS(=O)(=O)c3ccc(C(=O)O)c(O)c3)c(C3CCCC3)c2)c1C [Example 18, 4-[4-(2-Benzyl-4,5-dimethyl-thiophene-3-carbonyl)-2-cyclopentyl-phenoxysulfonyll-]2-hydroxy-benzoic acid] | – | 70 to 77 | 404 | –
20 | CCc1cc(C(=O)c2c(Cc3ccccc3)oc(C)c2C)cc(CC)c1OS(=O)(=O)c1ccc(C(=O)O)c(O)c1 [Example 19, 4-[4-(2-Benzyl-4,5-dimethyl-furan-3-carbonyl)-2.6-diethyl-phenoxysulfonyl]-2-hydroxy-benzoic acid] | – | 143 to 147 | 633 | –
21 | Cc1sc(Cc2ccc(Br)cc2)c(C(=O)c2ccc(OS(=O)(=O)c3ccc(C(=O)O)c(O)c3)c(C3CCCC3)c2)c1C [Example 20, 4-{4-[2-(4-Bromo-benzyl)4.5-dimethyl-thiophene-3-carbonyl]-2-cyclopentylphenoxysulfonyl}-2-hydroxy-benzoic acid] | – | 165 to 170 | 148 | –
22 | Cc1oc(Cc2ccccc2Br)c(C(=O)c2ccc(OS(=O)(=O)c3ccc(C(=O)O)c(O)c3)c(C3CCCC3)c2)c1C [Example 21, 4-{4-[2-(2-Bromo-benzyl)4,5-dimethyl-furan-3-carbonyl]-2-cyclopentyl-phenoxysulfonyl}-2-hydroxy-benzoic acid] | – | 72 to 82 | 371 | –
23 | CC(=O)Oc1cc(S(=O)(=O)Oc2ccc(C(=O)c3c(Cc4ccccc4)oc(C)c3C)cc2C2CCCC2)ccc1C(=O)O [Example 22, 2-Acetoxy4-[4-(2-benzyl-4,5-dimethyl-furan-3-carbonyl)-2-cyclopentyl-phenoxysulfonyl]-benzoic acid] | – | 55 to 90 | 508 | –
24 | CC(=O)Oc1cc(S(=O)(=O)Oc2ccc(C(=O)c3c(Cc4ccccc4)sc(C)c3C)cc2C2CCCC2)ccc1C(=O)O [Example 23, 2-Acetoxy4-[4-(2-benzyl-4,5-dimethyl-thiophene-3-carbonyl)-2-cyclopentyl-phenoxysulfonyl]-benzoic acid] | – | 94 to 96 | 439 | –
25 | CC(=O)Oc1cc(S(=O)(=O)Oc2ccc(C(=O)c3c(Cc4ccc(Br)cc4)sc(C)c3C)cc2C2CCCC2)ccc1C(=O)O [Example 24, 2-Acetoxy-4-{4-[2-(4-Bromo-benzyl)-4,5-dimethyl-thiophene-3-carbonyl]-2-cyclopentyl-phenoxysulfonyl}-benzoic acid] | – | 113 to 114 | 254 | –
26 | CC(=O)Oc1cc(S(=O)(=O)Oc2ccc(C(=O)c3c(Cc4ccccc4Br)oc(C)c3C)cc2C2CCCC2)ccc1C(=O)O [Example 25, 2-Acetoxy-4-{4-[2-(2-Bromo-benzyl)-4,5-dimethyl-fuiran-3-carbonyl]-2-cyclopentyl-phenoxysulfonyl}-benzoic acid] | – | 79 | 241 | –
27 | CCCCc1oc2ccccc2c1CCc1ccc(OS(=O)(=O)c2ccc(C(=O)O)c(OC(C)=O)c2)cc1 [Example 26, 2-Acetoxy-4-{4-[2-(2-butyl-benzofuran-3-yl)-ethyl]-phenoxysulfonyl}-benzoic acid] | – | 54 to 57 | – | 51.4
28 | Ammonium molybdate tetrahydrate [reference compound] | – | – | 8700 | –
